According to paper PMC9186362, “Design and biological evaluation of substituted 5,7-dihydro-6H-indolo[2,3-c]quinolin-6-one as novel selective Haspin inhibitors” (Journal of Enzyme Inhibition and Medicinal Chemistry, 2022):

How the values were obtained:
Test in all cases: SelectScreen ZLYTE
Assay type in all cases: biochemical
Conditions in all cases: ATP Km, read-out: Percentage of inhibition
NTRK2 (TRKB) = target: T1, NTRK2 (TRKB) (Homo sapiens, UniProt Q16620)
T1 construct: purchased Life Technologies (SelectScreen service)
Procedure: (§1) We further evaluated the selectivity profile of compound 55 on a larger panel of kinases (SelectScreen Whole Panel, Life Technologies). The inhibition profile of 55, evaluated at 1 μM, is depicted on a dendrogram on Figure 3 where kinases inhibited by a minimum of 80% are shown. A full list of the kinases tested is shown on Table S1 in supplementary information.

FRK (PTK5) = target: T2, FRK (PTK5) (Homo sapiens, UniProt P42685)
T2 construct: purchased Life Technologies
Procedure: as §1

CLK1 = target: T3, CLK1 (Homo sapiens, UniProt P49759)
T3 construct: purchased Life Technologies (SelectScreen Whole Panel)
Procedure: as §1

MAPK1 (ERK2) = MAPK1 (ERK2) (Homo sapiens, UniProt P28482)
Procedure: as §1

MAP4K4 (HGK) = target: T4, MAP4K4 (HGK) (Homo sapiens, UniProt O95819)
T4 construct: purchased Life Technologies (SelectScreen service)
Procedure: as §1

ROS1 = target: T5, ROS1 (Homo sapiens, UniProt P08922)
T5 construct: purchased Life Technologies
Procedure: as §1

PEAK1 = target: T6, PEAK1 (Homo sapiens, UniProt Q9H792)
T6 construct: purchased Life Technologies (SelectScreen Whole Panel)
Procedure: as §1

CSK = target: T7, CSK (Homo sapiens, UniProt P41240)
T7 construct: purchased Life Technologies (SelectScreen)
Procedure: as §1

PTK2B (FAK2) = target: T8, PTK2B (FAK2) (Homo sapiens, UniProt Q14289)
T8 construct: purchased Life Technologies (SelectScreen Whole Panel service)
Procedure: as §1

AMPK A1/B1/G1 = target: T9, AMPK A1/B1/G1 (Homo sapiens, UniProt Q13131)
T9 construct: purchased Life Technologies (SelectScreen Whole Panel service)
Procedure: as §1

TYK2 = target: T10, TYK2 (Homo sapiens, UniProt P29597)
T10 construct: purchased Life Technologies (SelectScreen Whole Panel)
Procedure: as §1

FGFR1 = target: T11, FGFR1 (Homo sapiens, UniProt P11362)
T11 construct: purchased Life Technologies
Procedure: as §1

ROCK1 = target: T12, ROCK1 (Homo sapiens, UniProt Q13464)
T12 construct: purchased Life Technologies (SelectScreen Whole Panel service)
Procedure: as §1

EEF2K = target: T13, EEF2K (Homo sapiens, UniProt O00418)
T13 construct: purchased Life Technologies (SelectScreen)
Procedure: as §1

LTK (TYK1) = target: T14, LTK (TYK1) (Homo sapiens, UniProt P29376)
T14 construct: purchased Life Technologies (SelectScreen Whole Panel service)
Procedure: as §1

AMPK (A2/B1/G3) = target: T15, AMPK (A2/B1/G3) (Homo sapiens, UniProt P54646)
T15 construct: purchased Life Technologies (SelectScreen Whole Panel service)
Procedure: as §1

CLK3 = CLK3 (Homo sapiens, UniProt P49761)
Procedure: as §1

AMPK A2/B1/G1 = AMPK A2/B1/G1 (Homo sapiens, UniProt P54646)
Procedure: as §1

PHKG1 = target: T16, PHKG1 (Homo sapiens, UniProt Q16816)
T16 construct: purchased Life Technologies
Procedure: as §1

GRK4 = target: T17, GRK4 (Homo sapiens, UniProt P32298)
T17 construct: purchased Life Technologies
Procedure: as §1

GSK3B (GSK3 beta) = target: T18, GSK3B (GSK3 beta) (Homo sapiens, UniProt P49841)
T18 construct: purchased Life Technologies (SelectScreen service)
Procedure: as §1

FLT4 (VEGFR3) = target: T19, FLT4 (VEGFR3) (Homo sapiens, UniProt P35916)
T19 construct: purchased Life Technologies (SelectScreen service)
Procedure: as §1

CSNK2A2 (CK2 alpha 2) = target: T20, CSNK2A2 (CK2 alpha 2) (Homo sapiens, UniProt P19784)
T20 construct: purchased Life Technologies (SelectScreen Whole Panel service)
Procedure: as §1

SRC = target: T21, SRC (Homo sapiens, UniProt P12931)
T21 construct: purchased Life Technologies
Procedure: as §1

CSNK2A1 (CK2 alpha 1) = CSNK2A1 (CK2 alpha 1) (Homo sapiens, UniProt P68400)
Procedure: as §1

MUSK = target: T22, MUSK (Homo sapiens, UniProt O15146)
T22 construct: purchased Life Technologies (SelectScreen Whole Panel service)
Procedure: as §1

FGFR4 = FGFR4 (Homo sapiens, UniProt P22455)
Procedure: as §1

TEK (Tie2) = target: T23, TEK (Tie2) (Homo sapiens, UniProt Q02763)
T23 construct: purchased Life Technologies (SelectScreen Whole Panel service)
Procedure: as §1

JAK2 = target: T24, JAK2 (Homo sapiens, UniProt O60674)
T24 construct: purchased Life Technologies (SelectScreen Whole Panel)
Procedure: as §1

STK4 (MST1) = target: T25, STK4 (MST1) (Homo sapiens, UniProt Q13043)
T25 construct: purchased Life Technologies (SelectScreen Whole Panel)
Procedure: as §1

MARK2 = target: T26, MARK2 (Homo sapiens, UniProt Q7KZI7)
T26 construct: purchased Life Technologies (SelectScreen Whole Panel service)
Procedure: as §1

ADRBK1 (GRK2) = target: T27, ADRBK1 (GRK2) (Homo sapiens, UniProt P25098)
T27 construct: purchased Life Technologies (SelectScreen Whole Panel)
Procedure: as §1

EGFR (ErbB1) T790M L858R = EGFR (ErbB1) T790M L858R (Homo sapiens, UniProt P00533, L858R/T790M)
Procedure: as §1

PRKCZ (PKC zeta) = PRKCZ (PKC zeta) (Homo sapiens, UniProt Q05513)
Procedure: as §1

ERBB2 (HER2) = target: T28, ERBB2 (HER2) (Homo sapiens, UniProt P04626)
T28 construct: purchased Life Technologies
Procedure: as §1

PRKX = PRKX (Homo sapiens, UniProt P51817)
Procedure: as §1

DCAMKL1 (DCLK1) = target: T29, DCAMKL1 (DCLK1) (Homo sapiens, UniProt O15075)
T29 construct: purchased Life Technologies
Procedure: as §1

RET A883F = target: T30, RET A883F (Homo sapiens, UniProt P07949, A883F)
T30 construct: purchased Life Technologies (SelectScreen service)
Procedure: as §1

SGK2 = SGK2 (Homo sapiens, UniProt Q9HBY8)
Procedure: as §1

T3 sequence (P49759 whole entry): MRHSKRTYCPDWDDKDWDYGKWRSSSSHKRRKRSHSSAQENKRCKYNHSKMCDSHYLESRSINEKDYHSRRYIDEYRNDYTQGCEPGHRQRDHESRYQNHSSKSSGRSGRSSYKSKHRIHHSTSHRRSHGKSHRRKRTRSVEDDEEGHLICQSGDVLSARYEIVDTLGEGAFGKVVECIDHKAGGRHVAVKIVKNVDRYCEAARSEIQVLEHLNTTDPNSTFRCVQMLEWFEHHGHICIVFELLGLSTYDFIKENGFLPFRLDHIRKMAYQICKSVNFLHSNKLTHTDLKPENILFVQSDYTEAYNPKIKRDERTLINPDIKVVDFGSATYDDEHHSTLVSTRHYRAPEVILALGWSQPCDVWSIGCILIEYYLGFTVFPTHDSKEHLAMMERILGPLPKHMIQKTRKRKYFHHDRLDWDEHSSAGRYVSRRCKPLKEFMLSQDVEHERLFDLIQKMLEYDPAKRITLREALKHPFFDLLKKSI
T21 sequence (P12931 whole entry): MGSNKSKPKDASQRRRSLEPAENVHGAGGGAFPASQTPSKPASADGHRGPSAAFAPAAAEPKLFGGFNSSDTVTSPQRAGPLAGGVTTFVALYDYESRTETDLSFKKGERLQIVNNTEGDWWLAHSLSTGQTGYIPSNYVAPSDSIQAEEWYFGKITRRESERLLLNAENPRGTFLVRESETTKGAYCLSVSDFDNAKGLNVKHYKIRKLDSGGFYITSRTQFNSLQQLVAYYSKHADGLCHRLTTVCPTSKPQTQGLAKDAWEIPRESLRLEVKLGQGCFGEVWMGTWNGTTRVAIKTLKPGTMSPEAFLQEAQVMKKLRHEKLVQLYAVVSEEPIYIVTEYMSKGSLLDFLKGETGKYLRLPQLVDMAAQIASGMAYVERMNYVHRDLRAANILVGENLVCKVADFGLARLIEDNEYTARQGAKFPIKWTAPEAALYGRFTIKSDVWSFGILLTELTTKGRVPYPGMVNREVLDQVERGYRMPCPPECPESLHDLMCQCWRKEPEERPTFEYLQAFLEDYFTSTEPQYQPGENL
T1 sequence (Q16620 32-822): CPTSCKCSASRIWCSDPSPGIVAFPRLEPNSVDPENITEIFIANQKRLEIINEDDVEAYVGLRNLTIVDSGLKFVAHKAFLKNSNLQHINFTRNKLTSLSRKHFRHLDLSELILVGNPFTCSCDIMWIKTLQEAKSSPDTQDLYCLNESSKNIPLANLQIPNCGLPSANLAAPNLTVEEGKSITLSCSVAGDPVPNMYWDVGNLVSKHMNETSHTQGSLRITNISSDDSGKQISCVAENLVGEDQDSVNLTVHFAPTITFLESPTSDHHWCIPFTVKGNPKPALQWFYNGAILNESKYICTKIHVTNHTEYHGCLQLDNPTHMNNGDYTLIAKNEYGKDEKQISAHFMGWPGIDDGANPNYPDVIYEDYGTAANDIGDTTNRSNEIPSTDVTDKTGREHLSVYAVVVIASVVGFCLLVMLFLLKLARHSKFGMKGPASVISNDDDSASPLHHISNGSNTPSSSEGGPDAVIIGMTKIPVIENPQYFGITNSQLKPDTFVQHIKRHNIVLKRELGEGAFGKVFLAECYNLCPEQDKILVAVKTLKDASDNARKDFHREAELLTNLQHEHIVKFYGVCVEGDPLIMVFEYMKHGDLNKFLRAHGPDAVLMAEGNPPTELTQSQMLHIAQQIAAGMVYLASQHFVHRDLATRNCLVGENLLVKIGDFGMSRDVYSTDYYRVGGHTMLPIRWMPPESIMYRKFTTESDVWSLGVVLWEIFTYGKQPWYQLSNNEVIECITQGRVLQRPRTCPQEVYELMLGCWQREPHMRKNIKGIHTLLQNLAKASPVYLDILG
T9 sequence (Q13131 whole entry): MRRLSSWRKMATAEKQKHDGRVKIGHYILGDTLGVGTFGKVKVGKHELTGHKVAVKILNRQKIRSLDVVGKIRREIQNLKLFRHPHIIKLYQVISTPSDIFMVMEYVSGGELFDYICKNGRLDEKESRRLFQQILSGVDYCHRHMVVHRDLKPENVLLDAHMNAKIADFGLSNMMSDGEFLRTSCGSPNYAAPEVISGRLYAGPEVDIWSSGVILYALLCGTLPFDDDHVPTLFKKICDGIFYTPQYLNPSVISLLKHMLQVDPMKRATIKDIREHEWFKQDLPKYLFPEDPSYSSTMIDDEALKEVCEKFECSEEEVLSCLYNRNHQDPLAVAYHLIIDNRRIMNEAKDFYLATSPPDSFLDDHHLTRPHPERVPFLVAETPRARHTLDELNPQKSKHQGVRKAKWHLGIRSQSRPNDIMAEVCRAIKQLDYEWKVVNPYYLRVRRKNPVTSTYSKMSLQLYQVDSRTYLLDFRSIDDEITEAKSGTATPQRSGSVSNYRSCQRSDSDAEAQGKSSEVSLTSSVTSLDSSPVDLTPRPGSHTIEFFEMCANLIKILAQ
T9 sequence (Q9Y478 whole entry partner): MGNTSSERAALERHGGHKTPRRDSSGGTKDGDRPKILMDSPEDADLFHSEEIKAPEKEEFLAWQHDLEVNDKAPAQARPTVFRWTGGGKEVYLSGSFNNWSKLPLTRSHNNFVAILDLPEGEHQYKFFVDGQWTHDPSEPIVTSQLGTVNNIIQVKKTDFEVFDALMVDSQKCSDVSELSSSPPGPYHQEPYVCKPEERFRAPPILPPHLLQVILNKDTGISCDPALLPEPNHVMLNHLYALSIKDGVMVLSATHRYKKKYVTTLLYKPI
T9 sequence (P54619 whole entry partner): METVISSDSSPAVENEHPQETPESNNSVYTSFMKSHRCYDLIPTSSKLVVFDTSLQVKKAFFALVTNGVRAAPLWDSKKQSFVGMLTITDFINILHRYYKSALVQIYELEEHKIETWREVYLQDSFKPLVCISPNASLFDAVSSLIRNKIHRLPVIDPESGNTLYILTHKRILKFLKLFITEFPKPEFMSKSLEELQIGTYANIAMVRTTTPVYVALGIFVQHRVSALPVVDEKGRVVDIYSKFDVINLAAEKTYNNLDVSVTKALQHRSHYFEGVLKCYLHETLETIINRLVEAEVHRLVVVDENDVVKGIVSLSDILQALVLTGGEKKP
T20 sequence (P19784 whole entry): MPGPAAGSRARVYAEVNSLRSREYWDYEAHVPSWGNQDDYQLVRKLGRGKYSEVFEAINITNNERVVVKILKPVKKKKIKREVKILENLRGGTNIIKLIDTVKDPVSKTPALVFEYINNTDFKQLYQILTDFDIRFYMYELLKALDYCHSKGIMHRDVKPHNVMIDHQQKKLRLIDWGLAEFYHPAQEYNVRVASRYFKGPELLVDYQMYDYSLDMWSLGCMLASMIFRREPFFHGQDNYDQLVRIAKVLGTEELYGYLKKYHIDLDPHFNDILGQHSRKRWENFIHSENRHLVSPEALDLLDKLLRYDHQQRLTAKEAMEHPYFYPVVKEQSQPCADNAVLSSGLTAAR
T15 sequence (P54646 whole entry): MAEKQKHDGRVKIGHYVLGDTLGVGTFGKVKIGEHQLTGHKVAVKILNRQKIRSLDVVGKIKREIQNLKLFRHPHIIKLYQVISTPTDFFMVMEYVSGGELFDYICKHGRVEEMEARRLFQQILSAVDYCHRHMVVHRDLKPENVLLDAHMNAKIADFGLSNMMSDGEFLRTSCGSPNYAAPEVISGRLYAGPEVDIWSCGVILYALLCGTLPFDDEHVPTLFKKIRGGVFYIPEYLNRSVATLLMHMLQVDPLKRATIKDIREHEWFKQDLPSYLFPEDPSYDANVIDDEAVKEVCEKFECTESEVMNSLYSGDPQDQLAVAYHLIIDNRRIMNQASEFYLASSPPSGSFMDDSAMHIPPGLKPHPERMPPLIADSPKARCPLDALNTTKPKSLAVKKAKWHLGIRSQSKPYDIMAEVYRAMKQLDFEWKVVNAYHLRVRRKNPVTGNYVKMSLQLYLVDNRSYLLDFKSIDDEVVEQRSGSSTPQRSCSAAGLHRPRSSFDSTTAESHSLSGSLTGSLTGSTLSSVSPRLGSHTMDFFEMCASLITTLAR
T15 sequence (Q9Y478 whole entry partner): as the sequence (Q9Y478 whole entry partner) above
T15 sequence (Q9UGI9 whole entry partner): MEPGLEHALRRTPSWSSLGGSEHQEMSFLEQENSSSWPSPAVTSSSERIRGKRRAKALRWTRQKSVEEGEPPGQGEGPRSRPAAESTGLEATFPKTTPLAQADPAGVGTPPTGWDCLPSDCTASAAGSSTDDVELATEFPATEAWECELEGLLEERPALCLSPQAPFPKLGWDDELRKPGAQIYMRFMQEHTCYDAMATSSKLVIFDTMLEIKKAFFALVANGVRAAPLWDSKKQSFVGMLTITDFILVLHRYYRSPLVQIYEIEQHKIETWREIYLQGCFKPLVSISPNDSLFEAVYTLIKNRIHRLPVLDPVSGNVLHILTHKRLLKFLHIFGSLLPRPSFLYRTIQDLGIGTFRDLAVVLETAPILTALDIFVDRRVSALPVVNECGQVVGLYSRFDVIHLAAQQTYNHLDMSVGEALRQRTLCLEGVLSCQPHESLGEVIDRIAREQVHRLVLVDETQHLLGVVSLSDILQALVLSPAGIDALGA
AMPK A2/B1/G1, sequence (P54646 whole entry): as the sequence (P54646 whole entry) above
AMPK A2/B1/G1, sequence (Q9Y478 whole entry partner): as the sequence (Q9Y478 whole entry partner) above
AMPK A2/B1/G1, sequence (P54619 whole entry partner): as the sequence (P54619 whole entry partner) above
CSNK2A1 (CK2 alpha 1), sequence (P68400 whole entry): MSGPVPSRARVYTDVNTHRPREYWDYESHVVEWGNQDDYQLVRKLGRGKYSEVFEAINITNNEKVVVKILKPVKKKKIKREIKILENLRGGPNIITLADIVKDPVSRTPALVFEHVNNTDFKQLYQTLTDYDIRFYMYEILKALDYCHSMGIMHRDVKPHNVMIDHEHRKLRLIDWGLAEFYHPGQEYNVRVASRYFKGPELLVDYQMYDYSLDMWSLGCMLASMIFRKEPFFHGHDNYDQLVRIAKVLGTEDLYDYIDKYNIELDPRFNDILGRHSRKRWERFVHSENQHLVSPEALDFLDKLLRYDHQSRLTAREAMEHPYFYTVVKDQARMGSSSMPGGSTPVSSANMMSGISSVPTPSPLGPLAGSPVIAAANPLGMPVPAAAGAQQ

SMILES: COc1ccc2[nH]c3c(=O)[nH]c4ccc(O)cc4c3c2c1 [Compound 55, 2-Hydroxy-10-methoxy-5,7-dihydro-6H-indolo[2,3-c]quinolin-6-one]
- inhibition at 1 µM (NTRK2 (TRKB)): 80%
- inhibition at 1 µM (FRK (PTK5)): 33%
- inhibition at 1 µM (CLK1): 98%
- inhibition at 1 µM (MAPK1 (ERK2)): 19%
- inhibition at 1 µM (MAP4K4 (HGK)): 81%
- inhibition at 1 µM (ROS1): 29%
- inhibition at 1 µM (PEAK1): 50%
- inhibition at 1 µM (CSK): 9%
- inhibition at 1 µM (PTK2B (FAK2)): 46%
- inhibition at 1 µM (AMPK A1/B1/G1): 47%
- inhibition at 1 µM (TYK2): 51%
- inhibition at 1 µM (FGFR1): 38%
- inhibition at 1 µM (ROCK1): 11%
- inhibition at 1 µM (EEF2K): 7%
- inhibition at 1 µM (LTK (TYK1)): 16%
- inhibition at 1 µM (AMPK (A2/B1/G3)): 42%
- inhibition at 1 µM (CLK3): 57%
- inhibition at 1 µM (AMPK A2/B1/G1): 58%
- inhibition at 1 µM (PHKG1): 32%
- inhibition at 1 µM (GRK4): 42%
- inhibition at 1 µM (GSK3B (GSK3 beta)): 81%
- inhibition at 1 µM (FLT4 (VEGFR3)): 72%
- inhibition at 1 µM (CSNK2A2 (CK2 alpha 2)): 17%
- inhibition at 1 µM (SRC): 37%
- inhibition at 1 µM (CSNK2A1 (CK2 alpha 1)): 14%
- inhibition at 1 µM (MUSK): 18%
- inhibition at 1 µM (FGFR4): 22%
- inhibition at 1 µM (TEK (Tie2)): 13%
- inhibition at 1 µM (JAK2): 54%
- inhibition at 1 µM (STK4 (MST1)): 99%
- inhibition at 1 µM (MARK2): 12%
- inhibition at 1 µM (ADRBK1 (GRK2)): -3%
- inhibition at 1 µM (EGFR (ErbB1) T790M L858R): 20%
- inhibition at 1 µM (PRKCZ (PKC zeta)): 7%
- inhibition at 1 µM (ERBB2 (HER2)): 2%
- inhibition at 1 µM (PRKX): 7%
- inhibition at 1 µM (DCAMKL1 (DCLK1)): 2%
- inhibition at 1 µM (RET A883F): 85%
- inhibition at 1 µM (SGK2): 19%
